Laboratory results published in US9714231B2, “Pyrrolidine GPR40 modulators” (BRISTOL-MYERS SQUIBB COMPANY, priority 2012, dated 2017).
Where a name gives a salt, the structure may show the parent alone. Read-outs that look alike come from different tables or passages of the source.

Experiments:
human GPR40 [1] = target: T1, human GPR40 (Homo sapiens, UniProt O14842)
human GPR40 [2] = target: T1, human GPR40; assay: FDSS-based intracellular calcium assay (Human GRP40 in vitro assay); assay type: cell-based; parameters: 3xFLAG; expressed in transfected cells; settings: cells expressing GPR40, intracellular Ca2+ response, FDSS reader; read-out: hGPR40 EC50
Method in brief: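 GPR40-expressing cells, plated overnight in serum-free phenol red-free DMEM, loaded with Fluo-3 in HBSS with 1.7 mM probenecid for 30 min at 37° C. Compounds in DMSO, diluted in assay buffer, added as 3× solutions; intracellular Ca^2+ response read on FDSS.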

T1 sequence (O14842 whole entry): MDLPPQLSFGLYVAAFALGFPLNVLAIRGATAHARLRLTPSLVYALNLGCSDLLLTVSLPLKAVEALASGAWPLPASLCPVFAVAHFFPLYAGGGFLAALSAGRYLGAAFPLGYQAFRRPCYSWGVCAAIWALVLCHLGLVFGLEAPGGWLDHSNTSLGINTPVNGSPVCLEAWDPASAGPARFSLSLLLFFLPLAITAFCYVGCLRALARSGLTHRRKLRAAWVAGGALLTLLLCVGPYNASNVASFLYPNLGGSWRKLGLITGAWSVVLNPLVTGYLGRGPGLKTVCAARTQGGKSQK

Compound: COc1ccc(F)c(N2CCC(Oc3ccc(N4CC(C(F)(F)F)C(C)C4CC(=O)O)cc3)CC2)c1 (single isomer, unassigned) [Example 26, Isomer 1, 2-((2,3-trans,3,4-trans)-1-(4-((1-(2-Fluoro-5-methoxyphenyl)piperidin-4-yl)oxy)phenyl)-3-methyl-4-(trifluoromethyl)pyrrolidin-2-yl)acetic acid, HCl]
- EC50 (human GPR40 [1]): 140 nM
- EC50 (human GPR40 [2]): 220 nM

Compound: CCOc1ccc(F)c(N2CCC(Oc3ccc(N4C[C@H](C(F)(F)F)C[C@@H]4CC(=O)O)cc3)C(CC(C)C)C2)c1 (single isomer, unassigned) [Example 35, Isomer 2, HCl]
- EC50 (human GPR40 [1]): 17 nM
- EC50 (human GPR40 [2]): 330 nM

Compound: COc1ccc(F)c(N2CCC(Oc3ccc(N4CCCC4CC(=O)O)cc3)CC2)c1 (single isomer, unassigned) [Example 48, Isomer 2, 2-(1-(4-((1-(2-Fluoro-5-methoxyphenyl)piperidin-4-yl)oxy)phenyl)pyrrolidin-2-yl)acetic acid]
- EC50 (human GPR40 [1]): 2500 nM
- EC50 (human GPR40 [2]): 1400 nM

Compound: COc1ccc(F)c(N2CCC(Oc3ccc(N4C[C@H](OC)C[C@@H]4CC(=O)O)cc3)C(C)C2)c1 (single isomer, unassigned) [Example 52, Isomer 2]
- EC50 (human GPR40 [1]): 140 nM
- EC50 (human GPR40 [2]): 600 nM

Compound: COc1ccc(F)c(N2CCC(Oc3ccc(N4CC(F)(F)C[C@@H]4CC(=O)O)cc3)C(C)C2)c1 (single isomer, unassigned) [Example 53, Isomer 2, HCl]
- EC50 (human GPR40 [1]): 49 nM
- EC50 (human GPR40 [2]): 49 nM

Compound: COc1ccc(C2CCCC2(C)C)c(N2CCC(Oc3ccc(N4C[C@H](OC)C[C@@H]4CC(=O)O)cc3)CC2)c1 (single isomer, unassigned) [Example 65, Isomer 1]
- EC50 (human GPR40 [1]): 10 nM
- EC50 (human GPR40 [2]): 33 nM

Compound: COc1cc(N2CCC(Oc3ccc(N4C[C@H](OC)[C@@H](C)[C@@H]4CC(=O)O)cn3)CC2)c(C2CCCC2(C)C)cn1 (single isomer, unassigned) [Example 151, Isomer 1, HCl]
- EC50 (human GPR40 [1]): 4 nM
- EC50 (human GPR40 [2]): 38 nM

Compound: COc1ccc(F)c(N2CCC(Oc3ccc(N4C[C@H](C(F)(F)F)C[C@@H]4CC(=O)O)cc3)CC2)c1 [Example 1, 2-((2R,4R)-1-(4-((1-(2-Fluoro-5-methoxyphenyl)piperidin-4-yl)oxy)phenyl)-4-(trifluoromethyl)pyrrolidin-2-yl)acetic acid, HCl]
- EC50 (human GPR40 [1]): 310 nM
- EC50 (human GPR40 [2]): 210 nM

Compound: COc1cc(N2CCC(Oc3ccc(N4C[C@H](OC)C[C@@H]4CC(=O)O)cc3Cl)C(C)C2)c(Cl)cn1 (stereo partly drawn) [Example 137, 2-((2R,4R)-1-(3-Chloro-4-(((3,4-trans)-1-(5-chloro-2-methoxypyridin-4-yl)-3-methylpiperidin-4-yl)oxy)phenyl)-4-methoxypyrrolidin-2-yl)acetic acid, sodium salt]
- EC50 (human GPR40 [2]): 230 nM

Compound: CCOc1ccc(F)c(N2CCC(Oc3ccc(N4C[C@H](C(F)(F)F)C[C@@H]4CC(=O)O)c(F)c3)CC2)c1 [Example 143]
- EC50 (human GPR40 [2]): 360 nM

Compound: COc1cc(N2CCC(Oc3ccc(N4C[C@H](F)[C@@H](C)[C@@H]4CC(=O)O)cc3)C(C)C2)c(Cl)cn1 (stereo partly drawn) [Example 145]
- EC50 (human GPR40 [2]): 26 nM

Compound: COc1cc(N2CCC(Oc3ccc(N4C[C@H](F)[C@@H](C)[C@@H]4CC(=O)O)cn3)C(C)C2)c(Cl)cn1 (stereo partly drawn) [Example 146]
- EC50 (human GPR40 [2]): 90 nM

Compound: COc1cc(N2CCC(Oc3ccc(N4C[C@H](OC)C[C@@H]4CC(=O)O)cn3)C(C)C2)c(C2CCCC2)cn1 (stereo partly drawn) [Example 149, 2-((2R,4R)-1-(6-(((3,4-trans)-1-(5-Cyclopentyl-2-methoxypyridin-4-yl)-3-methylpiperidin-4-yl)oxy)pyridin-3-yl)-4-methoxypyrrolidin-2-yl)acetic acid]
- EC50 (human GPR40 [2]): 160 nM

Compound: COc1cc(N2CCC(Oc3ccc(N4C[C@H](OC)[C@@H](C)[C@@H]4CC(=O)O)cn3)CC2)c(C2=CCCC2(C)C)cn1 [Example 152, 2-((2S,3S,4R)-1-(6-((1-(5-(5,5-Dimethylcyclopent-1-en-1-yl)-2-methoxypyridin-4-yl)piperidin-4-yl)oxy)pyridin-3-yl)-4-methoxy-3-methylpyrrolidin-2-yl)acetic acid, HCl]
- EC50 (human GPR40 [2]): 68 nM

Compound: COc1cc(N2CC[C@@H](Oc3ccc(N4C[C@H](OC)[C@@H](C)[C@@H]4CC(=O)O)cn3)[C@H](C)C2)c(C2=CCCC2(C)C)cn1 [Example 153, 2-((2S,3S,4R)-1-(6-(((3R,4R)-1-(5-(5,5-Dimethylcyclopent-1-en-1-yl)-2-methoxypyridin-4-yl)-3-methylpiperidin-4-yl)oxy)pyridin-3-yl)-4-methoxy-3-methylpyrrolidin-2-yl)acetic acid, HCl]
- EC50 (human GPR40 [2]): 200 nM

Compound: COc1cc(N2CCC(Oc3ccc(N4CC[C@@H](C)[C@@H]4CC(=O)O)cc3)C(C)C2)c(Cl)cn1 (stereo partly drawn) [Example 154, 2-((2S,3R)-1-(4-(((3,4-trans)-1-(5-Chloro-2-methoxypyridin-4-yl)-3-methylpiperidin-4-yl)oxy)phenyl)-3-methylpyrrolidin-2-yl)acetic acid, TFA]
- EC50 (human GPR40 [2]): 110 nM

Compound: COc1cc(N2CCC(Oc3ccc(N4C[C@H](F)[C@@H](C)[C@@H]4CC(=O)O)cc3F)C(C)C2)c(Cl)cn1 (stereo partly drawn) [Example 156, 2-((2S,3S,4R)-1-(4-(((3,4-trans)-1-(5-Chloro-2-methoxypyridin-4-yl)-3-methylpiperidin-4-yl)oxy)-3-fluorophenyl)-4-fluoro-3-methylpyrrolidin-2-yl)acetic acid]
- EC50 (human GPR40 [2]): 63 nM

Compound: CCO[C@H]1CN(c2ccc(OC3CCN(c4cc(OC)ncc4Cl)CC3C)cc2)[C@@H](CC(=O)O)[C@@H]1C (stereo partly drawn) [Example 158, 2-((2S,3S,4R)-1-(4-(((3,4-trans)-1-(5-Chloro-2-methoxypyridin-4-yl)-3-methylpiperidin-4-yl)oxy)phenyl)-4-ethoxy-3-methylpyrrolidin-2-yl)acetic acid, TFA]
- EC50 (human GPR40 [2]): 160 nM

Compound: COc1cc(N2CCC(Oc3ncc(N4C[C@H](OC)[C@@H](C)[C@@H]4CC(=O)O)cc3F)C(C)C2)c(Cl)cn1 (stereo partly drawn) [Example 159, 2-((2S,3S,4R)-1-(6-(((3,4-trans)-1-(5-Chloro-2-methoxypyridin-4-yl)-3-methylpiperidin-4-yl)oxy)-5-fluoropyridin-3-yl)-4-methoxy-3-methylpyrrolidin-2-yl)acetic acid]
- EC50 (human GPR40 [2]): 85 nM

Compound: CCCCOc1cc(N2C[C@H](OC)[C@@H](C)[C@@H]2CC(=O)O)cnc1OC1CCN(c2cc(OC)ncc2Cl)CC1C (stereo partly drawn) [Example 160, 2-((2S,3S,4R)-1-(5-Butoxy-6-(((3,4-trans)-1-(5-chloro-2-methoxypyridin-4-yl)-3-methylpiperidin-4-yl)oxy)pyridin-3-yl)-4-methoxy-3-methylpyrrolidin-2-yl)acetic acid]
- EC50 (human GPR40 [2]): 86 nM

Compound: CCCCCO[C@H]1CN(c2ccc(OC3CCN(c4cc(OC)ncc4Cl)CC3C)cc2)[C@@H](CC(=O)O)[C@@H]1C (stereo partly drawn) [Example 162, 2-((2S,3S,4R)-1-(4-(((3,4-trans)-1-(5-Chloro-2-methoxypyridin-4-yl)-3-methylpiperidin-4-yl)oxy)phenyl)-3-methyl-4-(pentyloxy)pyrrolidin-2-yl)acetic acid, TFA]
- EC50 (human GPR40 [2]): 63 nM

Compound: COc1cc(N2CCC(Oc3ncc(N4C[C@H](F)[C@@H](C)[C@@H]4CC(=O)O)cc3F)C(C)C2)c(Cl)cn1 (stereo partly drawn) [Example 164, 2-((2S,3S,4R)-1-(6-(((3,4-trans)-1-(5-Chloro-2-methoxypyridin-4-yl)-3-methylpiperidin-4-yl)oxy)-5-fluoropyridin-3-yl)-4-fluoro-3-methylpyrrolidin-2-yl)acetic acid]
- EC50 (human GPR40 [2]): 110 nM

Compound: COc1cc(N2CCC(Oc3ncc(N4C[C@H](OC)[C@@H](C)[C@@H]4CC(=O)O)cc3C(F)(F)F)C(C)C2)c(Cl)cn1 (stereo partly drawn) [Example 165, 2-((2S,3S,4R)-1-(6-(((3,4-trans)-1-(5-Chloro-2-methoxypyridin-4-yl)-3-methylpiperidin-4-yl)oxy)-5-(trifluoromethyl)pyridin-3-yl)-4-methoxy-3-methylpyrrolidin-2-yl)acetic acid]
- EC50 (human GPR40 [2]): 47 nM

Compound: COc1cc(N2CCC(Oc3ccc(N4C[C@H](OC)[C@@H](C)[C@@H]4CC(=O)O)nc3)C(C)C2)c(Cl)cn1 (stereo partly drawn) [Example 166, 2-((2S,3S,4R)-1-(5-(((3,4-trans)-1-(5-Chloro-2-methoxypyridin-4-yl)-3-methylpiperidin-4-yl)oxy)pyridin-2-yl)-4-methoxy-3-methylpyrrolidin-2-yl)acetic acid]
- EC50 (human GPR40 [2]): 420 nM

Compound: COc1cc(N2CCC(Oc3ncc(N4C[C@H](OC)[C@@H](C)[C@@H]4CC(=O)O)cc3OC(C)C)C(C)C2)c(Cl)cn1 (stereo partly drawn) [Example 167, 2-((2S,3S,4R)-1-(6-(((3,4-trans)-1-(5-Chloro-2-methoxypyridin-4-yl)-3-methylpiperidin-4-yl)oxy)-5-isopropoxypyridin-3-yl)-4-methoxy-3-methylpyrrolidin-2-yl)acetic acid]
- EC50 (human GPR40 [2]): 45 nM

Compound: COc1cc(N2CCC(Oc3ncc(N4C[C@H](OC)[C@@H](C)[C@H]4CC(=O)O)cc3F)C(C)C2)c(Cl)cn1 (stereo partly drawn) [Example 168, 2-((2R,3S,4R)-1-(6-(((3,4-trans)-1-(5-Chloro-2-methoxypyridin-4-yl)-3-methylpiperidin-4-yl)oxy)-5-fluoropyridin-3-yl)-4-methoxy-3-methylpyrrolidin-2-yl)acetic acid]
- EC50 (human GPR40 [2]): 500 nM

Compound: COc1cc(N2CCC(Oc3cnc(N4C[C@H](OC)[C@@H](C)[C@@H]4CC(=O)O)nc3)C(C)C2)c(Cl)cn1 (stereo partly drawn) [Example 170, 2-((2S,3S,4R)-1-(5-(((3,4-trans)-1-(5-Chloro-2-methoxypyridin-4-yl)-3-methylpiperidin-4-yl)oxy)pyrimidin-2-yl)-4-methoxy-3-methylpyrrolidin-2-yl)acetic acid]
- EC50 (human GPR40 [2]): 1700 nM

Compound: COc1cc(N2CCC(Oc3cnc(N4C[C@H](OC)[C@@H](C)[C@@H]4CC(=O)O)c(F)c3)C(C)C2)c(Cl)cn1 (stereo partly drawn) [Example 171, 2-((2S,3S,4R)-1-(5-(((3,4-trans)-1-(5-Chloro-2-methoxypyridin-4-yl)-3-methylpiperidin-4-yl)oxy)-3-fluoropyridin-2-yl)-4-methoxy-3-methylpyrrolidin-2-yl)acetic acid]
- EC50 (human GPR40 [2]): 410 nM
